EC50, inhibition and activation data for 17 molecules are collected here from patent publication US10793557B2, “Sting agonist compounds” (Merck Sharp & Dohme Corp., priority 2018, dated 2020).

Structures are written as SMILES.

The target in experiment [1] is T1, full-length HAQ STING (Homo sapiens, UniProt Q86WV6, G230A/H232R/R293Q/R71H).
T1 construct: AviTag (after GG linker) (C); HRV3C cleavage site (after GS linker) (C); HIS8 (C); made in house; host or cells: Trichoplusia ni (Hi-Five) insect cells infected with baculovirus (virus generated and amplified in Sf21 cells); used as a washed membrane preparation
The experiment in a line: 3H-cGAMP filtration binding assay (HAQ STING). The following applies: competition with tritiated cGAMP, HAQ STING membrane. The procedure, abridged:
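Hi-Five (T. ni) membranes overexpressing the STING variant (2.2 ug/ml working) preincubated with compound 60 min at RT in PBS, then [3H]cGAMP (8 nM working stock) added for 60 min at RT. Bound radioactivity captured on GF/B filters and counted by scintillation; EC50 from 4-parameter fit of control-normalized activity.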

In experiment [2] the target is T2, full-length WT STING (Homo sapiens, UniProt Q86WV6, H232R).
T2 construct: AviTag (after gg linker) (C); HRV3C cleavage site (after gs linker) (C); HIS8 (C); made in house; host or cells: Trichoplusia ni (Hi-Five) insect cells infected with baculovirus (virus generated and amplified in Sf21 cells); used as a washed membrane preparation
The experiment in a line: 3H-cGAMP filtration binding assay (WT STING). The following applies: for EC50: competition with tritiated cGAMP, WT STING membrane. The essentials:
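EC50 values come from 4-parameter fits of remaining filter-bound tritium versus log concentration (10-point, 1:3 dilution). Insect-cell membranes carrying full-length WT STING were incubated 60 min at RT with compound and tritiated cGAMP (16 nM working stock) before filtration.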

For experiment [3], the system named is secretion of interferon-beta from THP1 cells. Nature of the experiment: IFN-β secretion in THP1 cell culture (5 h). It counts as cell-based. The conditions noted are these: Homo sapiens, THP-1, 5 h, 30 uM cGAMP = 100%; for activation at 30 µM: compound at 30 μM, read-out: % Effect at 30 μM relative to 2′3′-cGAMP; for activation at 3 µM: compound at 3 uM, read-out: % Effect relative to 2′3′-cGAMP (@ 3 uM). The essentials: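 IFN-β in supernatant measured by AlphaLISA after a 5 h, 37 °C incubation of THP1 cells with compound (10 concentrations, 30000 down to 1.5 nM, 0.3% DMSO) in low-serum RPMI. Values scaled between DMSO and 30 uM cGAMP controls; 4-parameter curve fit yields EC50.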

T2 sequence (Q86WV6 with tags, fused parts or gaps H232R): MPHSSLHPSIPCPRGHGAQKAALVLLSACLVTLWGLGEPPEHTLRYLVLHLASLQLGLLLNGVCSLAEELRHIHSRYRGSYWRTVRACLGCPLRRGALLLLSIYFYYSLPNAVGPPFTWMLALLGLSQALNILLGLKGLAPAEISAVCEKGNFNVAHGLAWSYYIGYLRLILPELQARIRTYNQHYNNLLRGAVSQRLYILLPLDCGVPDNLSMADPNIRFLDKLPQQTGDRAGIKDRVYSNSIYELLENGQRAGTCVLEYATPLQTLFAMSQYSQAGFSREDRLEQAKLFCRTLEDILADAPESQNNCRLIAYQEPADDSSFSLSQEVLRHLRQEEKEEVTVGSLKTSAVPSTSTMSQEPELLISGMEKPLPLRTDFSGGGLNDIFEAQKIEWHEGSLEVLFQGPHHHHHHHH
T1 sequence (Q86WV6 with tags, fused parts or gaps R71H/G230A/H232R/R293Q): as the sequence (Q86WV6 with tags, fused parts or gaps H232R) above, with R71H, G230A, R293Q counted along it

Consider `COc1cc2sc(C(=O)C[C@H](C)C(=O)O)cc2c(F)c1OCCCCCOc1c(OC)cc2sc(C(=O)[C@@H]3CC[C@H]3C(=O)O)cc2c1F` [Example 121, trans-2-(5-((5-((2-((S)-3-carboxybutanoyl)-4-fluoro-6-methoxybenzo[b]thiophen-5-yl)oxy)pentyl)oxy)-4-fluoro-6-methoxybenzo[b]thiophene-2-carbonyl)cyclobutane carboxylic acid], for which, in experiment [1], the EC50 (commonly the concentration at which the effect is half-maximal) is 1550 nM. Besides, the inhibition – broadly, the share of the control response that was lost under treatment – at 20 µM in experiment [2] (at 20,000 nM compound) came to 43%. Further, the activation at 30 µM in experiment [3] amounted to 26%.
As to `COc1cc2sc(C(=O)C[C@H](C)C(=O)O)cc2c(F)c1OCCCOc1c(OC)cc2sc(C(=O)C[C@H](C)C(=O)O)cc2c1Cl` [Example 122, (S)-4-(5-(3-((2-((S)-3-carboxybutanoyl)-4-chloro-6-methoxybenzo[b]thiophen-5-yl)oxy)propoxy)-4-fluoro-6-methoxybenzo[b]thiophen-2-yl)-2-methyl-4-oxobutanoic acid], the EC50 in experiment [1] and in experiment [2] was 1 nM in each case. The activation at 30 µM in experiment [3] stood at 79%.
`COc1cc2sc(C(=O)C[C@H](C)C(=O)O)cc2c(F)c1OCCCOc1c(OC)cc2sc(C(=O)C[C@H](C)C(=O)O)cc2c1Br` [Example 123, (S)-4-(5-(3-((4-bromo-2-((S)-3-carboxybutanoyl)-6-methoxybenzo[b]thiophen-5-yl)oxy)propoxy)-4-fluoro-6-methoxybenzo[b]thiophen-2-yl)-2-methyl-4-oxobutanoic acid]: the EC50 was determined as 1 nM in experiment [1] and 2 nM in experiment [2]. Also, in experiment [3], the activation at 30 µM was determined as 105%.
Take `COc1cc2sc(CC[C@H](C)C(=O)O)cc2c(F)c1OCCCCOc1c(OC)cc2sc(C(=O)C[C@H](C)C(=O)O)cc2c1F` [Example 124, (S)-4-(5-(4-((2-((S)-3-carboxybutyl)-4-fluoro-6-methoxybenzo[b]thiophen-5-yl)oxy)butoxy)-4-fluoro-6-methoxybenzo[b]thiophen-2-yl)-2-methyl-4-oxobutanoic acid]: the EC50 worked out at 263 nM in experiment [1] and 3060 nM in experiment [2]. Also, in experiment [3], the activation at 3 µM amounted to 45%.
For the molecule `COc1cc2cc(C(=O)CCC(=O)O)sc2cc1OCCCOc1c(OC)cc2sc(C(=O)CCC(=O)O)cc2c1F` [Example 125, 4-(6-(3-((2-(3-carboxypropanoyl)-4-fluoro-6-methoxybenzo[b]thiophen-5-yl)oxy)propoxy)-5-methoxybenzo[b]thiophen-2-yl)-4-oxobutanoic acid], the EC50 in experiment [1] came to 1 nM; in experiment [2], 5 nM. Moreover, in experiment [3], the activation at 30 µM came to 156%.
Consider `COc1cc2sc(C(=O)CCC(=O)O)cc2cc1OCCCOc1cc2sc(C(=O)CCC(=O)O)cc2cc1OC` [Example 126, 4-(5-(3-((2-(3-carboxypropanoyl)-5-methoxybenzo[b]thiophen-6-yl)oxy)propoxy)-6-methoxybenzo[b]thiophen-2-yl)-4-oxobutanoic acid], for which the EC50 was determined as 2 nM in experiment [1] and 19 nM in experiment [2]. In addition, in experiment [3], the activation at 30 µM was 91%.
Taken in the same sequence, the figures for `COc1cc2cc(C(=O)CCC(=O)O)sc2cc1OCCCOc1cc2sc(C(=O)CCC(=O)O)cc2cc1OC` [Example 127, 4,4′-(6,6′-(propane-1,3-diylbis(oxy))bis(5-methoxybenzo[b]thiophene-6,2-diyl))bis(4-oxobutanoic acid)] were 16 nM, 270 nM and 120%.
On to `COc1cc2sc(C(=O)CCC(=O)O)cc2cc1CCCOc1cc2sc(C(=O)CCC(=O)O)cc2cc1OC` [Example 128, 4-(5-(3-((2-(3-carboxypropanoyl)-5-methoxybenzo[b]thiophen-6-yl)oxy)propyl)-6-methoxybenzo[b]thiophen-2-yl)-4-oxobutanoic acid], for which the EC50 in experiment [1] turned out to be 1080 nM; in experiment [2] it was 6310 nM. Also, the activation at 30 µM in experiment [3] worked out at 83%.
In the case of `COc1cc2cc(C(=O)CCC(=O)O)sc2cc1OCCCc1cc2cc(C(=O)CCC(=O)O)sc2cc1C` [Example 129, 4-(5-(3-((2-(3-carboxypropanoyl)-5-methoxybenzo[b]thiophen-6-yl)oxy)propyl)-6-methylbenzo[b]thiophen-2-yl)-4-oxobutanoic acid], the EC50 in experiment [1] came out at 3500 nM; in experiment [2], 17100 nM. In addition, the activation at 30 µM in experiment [3] is 50%.
On to `COc1cc2sc(C(=O)C[C@H](C)C(=O)O)cc2c(F)c1OCCCCOc1c(OC)cc2sc(C(=O)C[C@H](C)C(=O)O)cc2c1Cl` [Example 130, (S)-4-(5-(4-((2-((S)-3-carboxybutanoyl)-4-chloro-6-methoxybenzo[b]thiophen-5-yl)oxy)butoxy)-4-fluoro-6-methoxybenzo[b]thiophen-2-yl)-2-methyl-4-oxobutanoic acid], for which the EC50 was determined as 3 nM in experiment [1] and 25 nM in experiment [2]. The activation at 30 µM in experiment [3] came out at 61%.
For `COc1cc2sc(C(=O)C[C@H](C)C(=O)O)cc2c(F)c1OCCCCOc1c(OC)cc2sc(C(=O)C[C@H](C)C(=O)O)cc2c1Br` [Example 131, (S)-4-(5-(4-((4-bromo-2-((S)-3-carboxybutanoyl)-6-methoxybenzo[b]thiophen-5-yl)oxy)butoxy)-4-fluoro-6-methoxybenzo[b]thiophen-2-yl)-2-methyl-4-oxobutanoic acid], the EC50 is 25 nM in experiment [1] and 242 nM in experiment [2]. Also, the activation at 3 µM in experiment [3] came out at 38%.
Consider `COc1cc2sc(C(=O)C[C@H](C)C(=O)O)cc2c(Cl)c1OCCCOc1c(OC)cc2sc(C(=O)C[C@H](C)C(=O)O)cc2c1Cl` [Example 132, (2S,2′S)-4,4′-(5,5′-(propane-1,3-diylbis(oxy))bis(4-chloro-6-methoxybenzo[b]thiophene-5,2-diyl))bis(2-methyl-4-oxobutanoic acid)], for which the EC50 stood at 3 nM in experiment [1] and 10 nM in experiment [2]. Besides, the activation at 30 µM in experiment [3] was 131%.
The corresponding values for `COc1cc2sc(C(=O)C[C@H](C)C(=O)O)cc2c(Cl)c1OCCCOc1c(OC)cc2sc(C(=O)C[C@H](C)C(=O)O)cc2c1Br` [Example 133, (S)-4-(5-(3-((4-bromo-2-((S)-3-carboxybutanoyl)-6-methoxybenzo[b]thiophen-5-yl)oxy)propoxy)-4-chloro-6-methoxybenzo[b]thiophen-2-yl)-2-methyl-4-oxobutanoic acid] are 15 nM, 147 nM and 80%.
Taken in the same sequence, the figures for `COc1cc2sc(C(=O)C[C@H](C)C(=O)O)cc2c(Br)c1OCCCOc1c(OC)cc2sc(C(=O)C[C@H](C)C(=O)O)cc2c1Br` [Example 134, (2S,2′S)-4,4′-(5,5′-(propane-1,3-diylbis(oxy))bis(4-bromo-6-methoxybenzo[b]thiophene-5,2-diyl))bis(2-methyl-4-oxobutanoic acid)] were 22 nM, 233 nM and 89%.
The corresponding values for `COc1cc2sc(C[C@@H]3CC[C@H]3C(=O)O)cc2c(F)c1OCCCOc1c(OC)cc2sc(C(=O)C[C@H](C)C(=O)O)cc2c1F` [Example 135, 2-((5-(3-((2-((S)-3-carboxybutanoyl)-4-fluoro-6-methoxybenzo[b]thiophen-5-yl)oxy)propoxy)-4-fluoro-6-methoxybenzo[b]thiophen-2-yl)methyl)cyclo-butanecarboxylic acid] are 1 nM, 5 nM and 100%.
In the case of `COc1cc2sc(C[C@@H]3CC[C@H]3C(=O)O)cc2c(F)c1OCCCCOc1c(OC)cc2sc(C(=O)C[C@H](C)C(=O)O)cc2c1F` [Example 136, 2-((5-(4-((2-((S)-3-carboxybutanoyl)-4-fluoro-6-methoxybenzo[b]thiophen-5-yl)oxy)butoxy)-4-fluoro-6-methoxybenzo[b]thiophen-2-yl)methyl)cyclo-butanecarboxylic acid], the EC50 in experiment [1] was found to be 314 nM; in experiment [2] it was 10300 nM. The activation at 30 µM in experiment [3] worked out at 37%.
Taken in the same sequence, the figures for `COc1cc2sc(C(=O)C[C@H](C)C(=O)O)cc2c(F)c1OCCCOc1c(OC)c(Cl)c2sc(C(=O)C[C@H](C)C(=O)O)cc2c1Cl` [Example 137, (S)-4-(5-(3-((2-((S)-3-carboxybutanoyl)-4,7-dichloro-6-methoxybenzo[b]thiophen-5-yl)oxy)propoxy)-4-fluoro-6-methoxybenzo[b]thiophen-2-yl)-2-methyl-4-oxobutanoic acid] were 40 nM, 319 nM and 155%.
